Results on 6 compounds are retold here after patent US7612104B2, “Bicyclic aryl-sulfonic acid [1,3,4]-thiadiazol-2-yl-amides, processes for their preparation, pharmaceutical compositions and methods for their use” (Sanofi-Aventis, priority 2005, dated 2009).

This test concerns the target T1, human PPARdelta (Homo sapiens, UniProt Q03181).
T1 construct: amino acids S139-Y441; expressed in transfected cells; host or cells: HEK cells, stably transfected (pcDNA3, CMV promoter)
T1 sequence (Q03181 139-441): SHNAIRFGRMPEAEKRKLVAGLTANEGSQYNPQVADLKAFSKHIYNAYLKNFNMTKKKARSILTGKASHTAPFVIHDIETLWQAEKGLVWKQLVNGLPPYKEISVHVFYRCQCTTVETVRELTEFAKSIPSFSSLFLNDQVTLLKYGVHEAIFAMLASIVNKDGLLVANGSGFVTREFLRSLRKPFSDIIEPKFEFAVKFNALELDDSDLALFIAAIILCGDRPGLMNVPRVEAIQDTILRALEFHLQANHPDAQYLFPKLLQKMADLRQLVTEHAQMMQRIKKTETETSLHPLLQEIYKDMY
Put plainly: Cellular PPARdelta assay (stably transfected HEK reporter cell line, luciferase). In kind it is cell-based. Conditions: GR-GAL4-humanPPARdelta-LBD. Here is the method: The activity of PPARalpha agonists is determined in a 3-day assay which is described below:
The PPARalpha reporter cell line is cultivated to 80% confluence in DMEM (#41965-039, Invitrogen) which is mixed with the following additions: 10% cs-FCS (fetal calf serum; #SH-30068.03, Hyclone), 0.5 mg/ml zeocin (#R250-01, Invitrogen), 0.5 mg/ml G418 (#10131-027, Invitrogen), 1% penicillin-streptomycin solution (#15140-122, Invitrogen) and 2 mM L-glutamine (#25030-024, Invitrogen). The cultivation takes place in standard cell culture bottles (#353112, Becton Dickinson) in a cell culture incubator at 37° C. in the presence of 5% CO2. The 80%-confluent cells are washed once with 15 ml of PBS (#14190-094, Invitrogen), treated with 3 ml of trypsin solution (#25300-054, Invitrogen) at 37° C. for 2 min, taken up in 5 ml of the DMEM described and counted in a cell counter. After dilution to 500.000 cells/ml, 35,000 cells are seeded in each well of a 96 well microtiter plate with a clear plastic base (#3610, Corning Costar). The plates are incubated in the cell culture incubator at 37° C. and 5% CO2 for 24 h.
PPARalpha agonists to be tested are dissolved in DMSO in a concentration of 10 mM. This stock solution is diluted in DMEM (#41965-039, Invitrogen) which is mixed with 5% cs-FCS (#SH-30068.03, Hyclone), 2 mM L-glutamine (#25030-024, Invitrogen) and the previously described antibiotics (zeocin, G418, penicillin and streptomycin). Test substances are tested in 11 different concentrations in the range from 10 μM to 100 pM.
The medium of the PPARalpha reporter cell line seeded on day 1 is completely removed by aspiration, and the test substances diluted in medium are immediately added to the cells. The dilution and addition of the substances is carried out by a robot (Beckman FX). The final volume of the test substances diluted in medium is 100 μl per well of a 96 well microtiter plate. The DMSO concentration in the assay is less than 0.1% v/v in order to avoid cytotoxic effects of the solvent.
The assay plates are incubated in an incubator at 37° C. and 5% CO2 for 24 h.
The PPARalpha reporter cells treated with the test substances are removed from the incubator, and the medium is aspirated off. The cells are lyzed by pipetting 50 μl of Bright Glo reagent (from Promega) into each well of a 96 well microtiter plate. After incubation at room temperature in the dark for 10 minutes, the microtiter plates are measured in the luminometer (Trilux from Wallac). The measuring time for each well of a microtiter plate is 1 sec.
The raw data from the luminometer are transferred into a Microsoft Excel file. Dose-effect plots and EC50 values of PPAR agonists are calculated using the XL.Fit program as specified by the manufacturer (IDBS).
The potency of substances which bind to human PPARdelta and activate it in an agonistic manner is analyzed using a stably transfected HEK cell line (HEK=human embryo kidney) which is referred to here as PPARdelta reporter cell line. In analogy to the assay described for PPARalpha, the PPARdelta reporter cell line also contains two genetic elements, a luciferase reporter element (pdeltaM-GAL4-Luc-Zeo) and a PPARdelta fusion protein (GR-GAL4-humanPPARdelta-LBD) which mediates expression of the luciferase reporter element depending on a PPARdelta ligand. The stably and constitutively expressed fusion protein GR-GAL4-humanPPARdelta-LBD binds in the cell nucleus of the PPARdelta reporter cell line via the GAL4 protein portion to the GAL4 DNA binding motifs 5′-upstream of the luciferase reporter element which is stably integrated in the genome of the cell line. There is only little expression of the luciferase reporter gene in the absence of a PPARdelta ligand if fatty acid-depleted fetal calf serum (cs-FCS) is used in the assay. PPARdelta ligands bind and activate the PPARdelta fusion protein and thereby stimulate expression of the luciferase reporter gene. […]

As a reminder, the EC50 is the concentration giving half of the maximal effect. A higher EC50 goes with a need for much substance.

`CCOc1cc(C(F)(F)F)ccc1C(=O)NC1Cc2ccc(S(=O)(=O)Nc3nnc(C(C)C)s3)cc2C1` (racemic) [Example 1, 2-Ethoxy-N-[5-(5-isopropyl-[1,3,4]thiadiazol-2-ylsulfamoyl)-indan-2-yl]-4-trifluoromethyl-benzamide] yielded a 50% effective concentration (EC50) of 1 nM. For the compound `CCOc1cc(C(F)(F)F)ccc1C(=O)NC1Cc2ccc(S(=O)(=O)Nc3nnc(C(C)C)s3)cc2C1` (single isomer, unassigned; enantiomer 1) [Example 1.1, 2-Ethoxy-N-[5-(5-isopropyl-[1,3,4]thiadiazol-2-ylsulfamoyl)-indan-2-yl]-4-trifluoromethyl-benzamide (Enantiomer 1)], the EC50 was found to be 1 nM.

In turn, `CCOc1cc(C(F)(F)F)ccc1C(=O)NC1Cc2ccc(S(=O)(=O)Nc3nnc(C(C)C)s3)cc2C1` (single isomer, unassigned; enantiomer 2) [Example 1.2, 2-Ethoxy-N-[5-(5-isopropyl-[1,3,4]thiadiazol-2-ylsulfamoyl)-indan-2-yl]-4-trifluoromethyl-benzamide (Enantiomer 2)] came in with an EC50 of 50 nM.

As for `CCOc1cc(C(F)(F)F)ccc1C(=O)N[C@H]1CCc2ccc(S(=O)(=O)Nc3nnc(C(C)C)s3)cc2C1` [Example 5, 2-Ethoxy-N-[(S)-7-(5-isopropyl-[1,3,4]thiadiazol-2-ylsulfamoyl)-1,2,3,4-tetrahydro-naphthalen-2-yl]-4-trifluoromethyl-benzamide], the concentration for a half-maximal effect (EC50) was 600 nM. As for `CCOc1cc(C(F)(F)F)ccc1C(=O)N[C@@H]1CCc2ccc(S(=O)(=O)Nc3nnc(C(C)C)s3)cc2C1` [Example 6, 2-Ethoxi-N-[(R)-7-(5-isopropyl-[1,3,4]thiadiazol-2-ylsulfamoyl)-1,2,3,4-tetrahydro-naphthalene-2-yl]-4-trifluoromethyl-benzamide], a half-maximal response (EC50) required 600 nM. The same measure for `CCOc1cc(C(F)(F)F)sc1C(=O)NC1Cc2ccc(S(=O)(=O)Nc3nnc(C(C)C)s3)cc2C1` (stereo not drawn) [Example 11, 3-Ethoxy-5-trifluoromethyl-thiophene-2-carboxylic acid [5-(5-isopropyl-[1,3,4]thiadiazol-2-ylsulfamoyl)-indan-2-yl]-amide]: 1 nM.
